According to patent US6429208B1, “Methods and compositions for restoring impaired cellular immune function” (Regents of the University of California, priority 1992, dated 2002):

Experiments:
[1] = system: PBMC from HIV seropositive subjects; test: Intracellular cAMP in PBMC from HIV seropositive subjects; type: cell-based, human; settings: 10 ng/ml for 10 min; decreased from 5.3
Procedure: The compound 2′,5′ dideoxyadenosine (ddAdo) inhibits adenylate cyclase, the enzyme responsible for the generation of cAMP, by competition for the “P”-binding site (Johnson, J Biochem (1990) 265:11595-11600). […] In one such experiment (FIG. 9A), the intracellular cAMP level decreased to normal levels within 4 hours and remained at this level when tested after 20 hours. The effect of ddAdo was compared with two other adenylate cyclase inhibitors which are naturally occurring adenosine phosphates. When used in equal concentrations, the three inhibitors gave similar reductions in intracellular CAMP levels. For example, when added in 10 ng/ml for 10 min, ddAdo decreased the CAMP levels from 5.3 pmol/10^6 PBMC to 3.6; 3′ AMP to 3.5; and 2′,3′deoxy-AMP reduced the level to 3.2 pmol/10^6 PBMC.
cAMP was determined using a commercial scintillation proximity RIA (Amersham, Arlington Heights, Ill.) following the manufacturer's protocol. PKA activity was determined using a kit from Gibco (Grand Island, N.Y.) and the manufacturer's protocol. For the cAMP assay, cells were lysed and sonicated in assay buffer (provided with the kits). Proliferative assays were performed as described above.
Further purification was achieved by reverse phase chromatography. 3 ml of above solution was applied on C18 Sep-Pak cartridge (Waters) equilibrated with water+0.1% TFA. The column was washed with H2O-TFA until absorbance at 280nm reached baseline. Bound material was eluted from the column by stepwise elution with H2O-acetonitrile-TFA mixtures. There were three peaks on elution curve at 20%, 40% and 70% acetonitrile. The effluent from the above step was rechromatographed again on C18 cartridge and yielded additional quantities of the three products. […] Fraction 2 was added in various PBS dilutions to lymphocytes from HIV seropositive subjects. cAMP was then measured on lysates of these cells after 1 hour.

[2] = system: normal PBMC; test: PHA-induced proliferation of normal PBMC, 3H-thymidine uptake; type: cell-based, human; settings: for ^3H-Thy. Incorp.: PHA alone 254.2 ± 9.0
Procedure: Peripheral blood mononuclear cells (PBMC) from healthy blood donors were isolated by Lymphoprep (Nyegaard and Co., Oslo, Norway) density gradient centrifugation. Cell cultures were prepared in Eppendorf tubes and contained 5-10×10^6 cells/ml for phosphotyrosine experiments and 2-5×10^6 cells/ml for the kinase experiments and the cAMP determinations described below. The concentration of PHA added per tube was 10 μg/ml of PHA-P (Wellcome, Beckenham, England). Phorbol 12 myristate-13 acetate (PMA) (P-8139, Sigma, St. Louis, Mo.) was dissolved in dimethylsulfoxide (DMSO) and used in optimal concentrations of 200 ng/ml. The total volume per tube was 1 ml.
(§1) Proliferative assays were performed as previously described (see, for example, Hofmann, B., et al., Cell Immunol (1989) 121:336-48. Briefly, one microcurie ^3H-thymidine was added to cultures 72 hours after stimulation, and after further 24 hours, all cultures were harvested on glass fiber filters with an automatic harvesting machine (Skatron, Lierbyen, Norway), and the incorporated radioactivity was measured in a liquid scintillation counter (Beckman LS 1800) after an addition of 1.5 ml scintillation fluid.
The concentration of Cholera toxoid was 10-0.2 μg/ml and 8-bromoadenosine 3′,5′ cyclic monophosphate (Br-cAMP) was 40-0.2 μg/ml. […] The PTK inhibitor Tyrphostin 25 (Bimol, Plymouth, Pa.) was used in a concentration of 1.0 μg/ml. Tyrphostin 25 has more than 30 fold higher affinity for PTK than for PKC and PKA. HIV components were added to final dilutions of 108-360 μg p24 antigen/mi.
Both Cholera toxoid or Br-cAMP impaired PHA-induced cell proliferation as measured by ^3H-thymidine uptake after 3 days of culture (Table 1). The 50% impairment of proliferation induced by HIV components is similar to the 50% impairment induced by 0.63 μg/ml of Cholera toxoid or […] of Br-cAMP. The experiment confirmed that cAMP impairs PHA-induced proliferation of T lymphocytes.

[3] = system: membrane PKC activity; test: Membrane PKC activity in PBMC; type: cell-based, human
Procedure: The reagents were obtained as a kit from Gibco (Grand island, N.Y.) and the manufacturer's protocol was followed. After activation, cell membrane fractions were then obtained by ultracentrifugation (100,000 g for one hour at 4° C.) of sonicated cell lysates without detergent. Membrane fractions were then sonicated in the presence of 0.05% Triton X and the specific PKC activities were determined. Specific PKC activity was determined as the difference between phosphorylation of a PKC specific substrate with and without a specific PKC inhibitor present. The specific PKC substrate was a synthetic peptide from myelin basic protein with an acetylated N-terminal glutamine. The specific PKC inhibitor was a pseudo-substrate peptide which specifically binds to the pseudo-substrate region of the regulatory domain of PKC. The reaction mixture was spotted on cellulose paper, non-bound ^32P-ATP was removed by washing, and the paper discs were counted in a β counter after addition of scintillation fluid. The amounts of lysate over which the assay was linear were determined in initial experiments. All experiments were repeated 2-5 times.

[4] = system: PBMC from an HIV seropositive subject; test: Proliferative response to PHA of PBMC from HIV seropositive subjects; type: cell-based, human
Procedure: as §1

[5] = target: PKA (Homo sapiens, UniProt P17612); settings: cited from earlier work
[6] = system: PTK; settings: cited from earlier work
[7] = cells not stimulated (control), without inhibitor 1.3 ± 0.2
[8] = cells stimulated by HIV, without inhibitor 3.0 ± 0.2
[9] = cells stimulated by PHA, without inhibitor 4.2 ± 1.6

Compound: 2′,3′deoxy-AMP
- cAMP levels [1]: 3.2 pmol/10^6 PBMC

Compound: Nc1ncnc2c1ncn2[C@@H]1O[C@H](CO)[C@@H](OP(=O)(O)O)[C@H]1O [3′ AMP]
- cAMP levels [1]: 3.5 pmol/10^6 PBMC

Compound: Nc1ncnc2c1nc(Br)n2[C@@H]1O[C@@H]2COP(=O)(O)O[C@H]2[C@H]1O [Br-cAMP, 8-bromoadenosine 3′,5′ cyclic monophosphate]
- Concentration inducing 50% impairment of PHA-induced proliferation ([2]; 3 days of culture): 200 µg/mL
- Activity, percentage of activity of PHA control ([2]; PHA + 100 μg/ml): 66%
- ^3H-Thy. Incorp. ([2]; PHA + 100 μg/ml): 168.7 ± 21.9 cpm ×10^−6
- Activity, percentage of activity of PHA control ([2]; PHA + 200 μg/ml): 38%
- ^3H-Thy. Incorp. ([2]; PHA + 200 μg/ml): 96.3 ± 14.4 cpm ×10^−6
- Activity, percentage of activity of PHA control ([2]; PHA + 400 μg/ml): 16%
- ^3H-Thy. Incorp. ([2]; PHA + 400 μg/ml): 41.6 ± 2.1 cpm ×10^−6
- PKC membrane activity [3, 7]: 3.9 ± 1.7 nM of ^32P/minute/10^6 PBMC
- PKC membrane activity [3, 8]: 2.2 ± 1.5 nM of ^32P/minute/10^6 PBMC
- PKC membrane activity [3, 9]: 2.1 ± 1.6 nM of ^32P/minute/10^6 PBMC

Compound: O=S(=O)(NCCNC/C=C/c1ccc(Br)cc1)c1cccc2cnccc12 [H-89]
- PKC membrane activity [3, 7]: 6.0 ± 1.9 nM of ^32P/minute/10^6 PBMC
- PKC membrane activity [3, 8]: 12.9 ± 4.7 nM of ^32P/minute/10^6 PBMC
- PKC membrane activity [3, 9]: 9.4 ± 5.5 nM of ^32P/minute/10^6 PBMC
- Proliferative response to PHA [4]: enhance proliferation
- Fold higher affinity for PKA than for PKC [5]: 660 fold

Compound: N#CC(C#N)=Cc1ccc(O)c(O)c1 [T-23]
- Proliferative response to PHA [4]: enhance proliferation

Compound: N#CC(C#N)=Cc1cc(O)c(O)c(O)c1 [Tyrophostin-25]
- PKC membrane activity [3, 7]: 2.0 ± 0.9 nM of ^32P/minute/10^6 PBMC
- PKC membrane activity [3, 8]: 4.6 ± 0.0 nM of ^32P/minute/10^6 PBMC
- PKC membrane activity [3, 9]: 7.7 ± 7.7 nM of ^32P/minute/10^6 PBMC
- Fold higher affinity for PTK than for PKC and PKA [6]: more than 30 fold
